Calls of active or inactive are those of the source.
How the values were obtained:
[1] = viability loss in HeLa cells – cytotoxicity control for MgcRacGAP inhibitor project, dose response (AID 624300); format: functional
[2] = decrease of insulin promoter-GFP reporter – imaging, high-content screening, mouse beta cells (AID 1628); format: functional; conditions: MIN6
[3] = MIN6 cell viability loss – mouse insulinoma, cytotoxicity control, dose response (AID 2122); format: functional;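 also: confirmatory high-throughput counterscreen run to flag cytotoxic compounds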
[4] = biological target: T1, Rac GTPase-activating protein 1 (Homo sapiens, UniProt Q9H0H5); test: blockers of MgcRacGAP-driven Rac1 GTP hydrolysis – biochemical, ADP Hunter fluorescence, primary and confirmatory, confirmation (AID 624330); format: functional
T1 sequence (Q9H0H5 whole entry): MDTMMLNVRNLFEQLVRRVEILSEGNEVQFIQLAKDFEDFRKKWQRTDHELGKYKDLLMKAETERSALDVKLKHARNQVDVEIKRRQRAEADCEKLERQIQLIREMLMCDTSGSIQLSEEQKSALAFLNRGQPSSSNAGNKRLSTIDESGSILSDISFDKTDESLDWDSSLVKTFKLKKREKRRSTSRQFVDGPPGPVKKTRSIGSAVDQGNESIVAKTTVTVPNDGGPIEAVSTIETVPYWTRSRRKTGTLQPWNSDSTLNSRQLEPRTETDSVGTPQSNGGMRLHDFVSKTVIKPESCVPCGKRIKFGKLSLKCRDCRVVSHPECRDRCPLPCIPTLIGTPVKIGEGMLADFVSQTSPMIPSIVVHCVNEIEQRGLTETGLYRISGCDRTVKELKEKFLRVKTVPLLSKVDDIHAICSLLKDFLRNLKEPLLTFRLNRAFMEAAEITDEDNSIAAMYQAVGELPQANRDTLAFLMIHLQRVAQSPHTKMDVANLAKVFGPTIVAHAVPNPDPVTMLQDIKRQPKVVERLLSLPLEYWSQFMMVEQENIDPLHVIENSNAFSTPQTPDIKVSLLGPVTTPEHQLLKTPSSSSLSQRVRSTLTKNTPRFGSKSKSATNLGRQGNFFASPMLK

Beta-arrestin-1 = Beta-arrestin-1 (Homo sapiens, UniProt P49407); test: beta-arrestin/AP2 interaction blockers, potency – biochemical, cherry pick 1, beta2-adaptin appendage, flow cytometry, dose response (AID 588783); format: functional
Beta-arrestin-1, sequence (P49407 whole entry): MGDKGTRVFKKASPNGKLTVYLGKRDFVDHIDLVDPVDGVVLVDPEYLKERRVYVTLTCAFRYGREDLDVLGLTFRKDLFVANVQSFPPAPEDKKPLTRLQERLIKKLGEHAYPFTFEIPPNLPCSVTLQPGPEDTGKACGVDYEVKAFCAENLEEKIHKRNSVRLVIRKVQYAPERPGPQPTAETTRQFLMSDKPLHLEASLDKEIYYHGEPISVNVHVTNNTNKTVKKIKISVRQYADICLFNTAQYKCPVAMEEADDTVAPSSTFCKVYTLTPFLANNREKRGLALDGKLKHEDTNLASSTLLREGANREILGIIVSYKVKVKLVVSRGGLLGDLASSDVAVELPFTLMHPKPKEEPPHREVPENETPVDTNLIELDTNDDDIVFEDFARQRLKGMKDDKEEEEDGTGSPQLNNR

Caspase-6 = biological target: T2, Caspase-6 (Homo sapiens, UniProt P55212); test: inhibition of CASP6 peptide cleavage – biochemical, VEID-R110 fluorescence, cherry-pick, dose response (AID 720632)
T2 sequence (P55212 whole entry): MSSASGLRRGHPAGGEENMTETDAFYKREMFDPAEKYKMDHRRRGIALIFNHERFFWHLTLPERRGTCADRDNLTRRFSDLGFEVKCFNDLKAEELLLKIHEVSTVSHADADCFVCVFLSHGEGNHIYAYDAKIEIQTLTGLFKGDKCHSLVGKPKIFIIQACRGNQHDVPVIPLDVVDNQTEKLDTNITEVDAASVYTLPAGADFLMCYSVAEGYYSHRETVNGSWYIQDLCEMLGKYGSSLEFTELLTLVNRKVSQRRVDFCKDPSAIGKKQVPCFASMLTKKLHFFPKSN

[5] = biological target: T3, Polyadenylate-binding protein 1 (Homo sapiens, UniProt P11940); test: MLLE domain peptide-binding blockers, IC50 – biochemical, fluorescence polarization, FITC-PAM2 peptide, dose response (AID 602259); format: functional; conditions: read-out: IC50_Mean
T3 sequence (P11940 whole entry, the tested form may be a part): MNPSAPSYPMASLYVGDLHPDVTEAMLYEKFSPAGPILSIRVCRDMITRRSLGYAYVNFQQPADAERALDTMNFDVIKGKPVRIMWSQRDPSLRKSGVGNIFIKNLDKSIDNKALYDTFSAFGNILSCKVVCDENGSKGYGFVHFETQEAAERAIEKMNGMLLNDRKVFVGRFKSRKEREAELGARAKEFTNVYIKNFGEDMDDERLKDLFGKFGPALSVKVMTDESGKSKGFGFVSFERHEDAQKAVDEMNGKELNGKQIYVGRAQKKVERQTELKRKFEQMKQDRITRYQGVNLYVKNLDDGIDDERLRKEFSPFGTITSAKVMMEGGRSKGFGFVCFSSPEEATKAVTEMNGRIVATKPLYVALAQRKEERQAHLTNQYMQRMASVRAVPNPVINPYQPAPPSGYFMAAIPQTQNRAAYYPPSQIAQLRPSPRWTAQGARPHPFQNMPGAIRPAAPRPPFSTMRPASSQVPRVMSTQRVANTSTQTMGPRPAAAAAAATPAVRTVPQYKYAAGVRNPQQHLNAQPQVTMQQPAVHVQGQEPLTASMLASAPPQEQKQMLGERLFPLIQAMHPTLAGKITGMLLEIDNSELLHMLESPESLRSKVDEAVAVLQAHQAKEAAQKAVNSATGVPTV

[6] = biological target: Transitional endoplasmic reticulum ATPase (Homo sapiens, UniProt P55072); test: p97 ATPase inhibitors, dose response, biochemical (AID 1534)
Transitional endoplasmic reticulum ATPase (Homo sapiens, UniProt P55072), sequence (P55072 whole entry): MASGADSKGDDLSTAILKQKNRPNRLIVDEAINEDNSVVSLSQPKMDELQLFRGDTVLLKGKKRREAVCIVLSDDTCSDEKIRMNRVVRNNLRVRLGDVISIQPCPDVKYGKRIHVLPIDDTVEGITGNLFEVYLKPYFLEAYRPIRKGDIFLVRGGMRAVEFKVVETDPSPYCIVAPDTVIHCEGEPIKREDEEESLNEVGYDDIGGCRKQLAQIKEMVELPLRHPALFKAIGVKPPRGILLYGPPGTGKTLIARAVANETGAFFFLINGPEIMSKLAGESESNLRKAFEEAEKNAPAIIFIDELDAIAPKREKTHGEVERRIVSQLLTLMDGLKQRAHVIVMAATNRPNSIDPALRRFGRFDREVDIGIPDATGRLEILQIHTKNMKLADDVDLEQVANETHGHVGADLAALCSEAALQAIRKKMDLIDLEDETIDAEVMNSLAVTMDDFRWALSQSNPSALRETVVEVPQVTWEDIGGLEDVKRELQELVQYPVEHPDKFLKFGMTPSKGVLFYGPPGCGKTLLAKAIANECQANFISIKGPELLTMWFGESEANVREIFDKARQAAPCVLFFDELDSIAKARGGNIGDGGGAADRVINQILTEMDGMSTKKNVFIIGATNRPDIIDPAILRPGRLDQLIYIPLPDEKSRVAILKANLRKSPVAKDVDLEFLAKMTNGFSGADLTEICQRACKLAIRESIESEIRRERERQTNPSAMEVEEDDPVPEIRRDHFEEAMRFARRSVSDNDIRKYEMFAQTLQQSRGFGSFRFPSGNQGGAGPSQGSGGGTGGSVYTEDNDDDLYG

[7] = biological target: T3, Polyadenylate-binding protein 1; test: MLLE binding blockers, Cy5 peptide tracer – biochemical, fluorescence polarization, Cy5-PAM2 peptide, secondary, miRNA deadenylation inhibitor project, dose response (AID 602260); format: functional; conditions: read-out: IC50_Mean
[8] = biological target: Glucose-6-phosphate 1-dehydrogenase (Homo sapiens, UniProt P11413); test: inhibition of Homo sapiens G6PD, dose series – biochemical, fluorescence, selectivity assay for P. falciparum G6PD inhibitor project, dose response (AID 504792); format: functional
Genome polyprotein = Genome polyprotein (dengue virus type 2, UniProt P29990); test: flavivirus cap methylation enzyme inhibition – biochemical, confirmation dose response, primary screen (AID 588689); format: functional
[9] = biological target: Transitional endoplasmic reticulum ATPase (Homo sapiens, UniProt P55072, C522A); test: C522A mutant p97 ATPase inhibitors, dose response, counter-screen for p97 inhibitor project, biochemical, luminescence (AID 1544)
[10] = HEK-293T viability loss, compound-treated – cell-based, uHTS hits, cytotoxicity control for B/T-cell NF-kB inhibitor project, dose response (AID 489019); format: functional;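 also: IC50 reflects cytotoxicity as loss of cell viability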
Jurkat = test: blockers of NF-kB activation in T cells – Jurkat, luciferase reporter, luminescence, B- and T-cell, dose response (AID 489004); format: functional, cell-based; conditions: Homo sapiens;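 also: NF-kB luciferase reporter Jurkat cells stimulated with PMA plus ionomycin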
NS3 = NS3 (Hepatitis C virus, UniProt A3EZJ3); test: PubChem AID 2173; set-up: species or system Hepacivirus hominis
NS3, sequence (A3EZJ3 whole entry): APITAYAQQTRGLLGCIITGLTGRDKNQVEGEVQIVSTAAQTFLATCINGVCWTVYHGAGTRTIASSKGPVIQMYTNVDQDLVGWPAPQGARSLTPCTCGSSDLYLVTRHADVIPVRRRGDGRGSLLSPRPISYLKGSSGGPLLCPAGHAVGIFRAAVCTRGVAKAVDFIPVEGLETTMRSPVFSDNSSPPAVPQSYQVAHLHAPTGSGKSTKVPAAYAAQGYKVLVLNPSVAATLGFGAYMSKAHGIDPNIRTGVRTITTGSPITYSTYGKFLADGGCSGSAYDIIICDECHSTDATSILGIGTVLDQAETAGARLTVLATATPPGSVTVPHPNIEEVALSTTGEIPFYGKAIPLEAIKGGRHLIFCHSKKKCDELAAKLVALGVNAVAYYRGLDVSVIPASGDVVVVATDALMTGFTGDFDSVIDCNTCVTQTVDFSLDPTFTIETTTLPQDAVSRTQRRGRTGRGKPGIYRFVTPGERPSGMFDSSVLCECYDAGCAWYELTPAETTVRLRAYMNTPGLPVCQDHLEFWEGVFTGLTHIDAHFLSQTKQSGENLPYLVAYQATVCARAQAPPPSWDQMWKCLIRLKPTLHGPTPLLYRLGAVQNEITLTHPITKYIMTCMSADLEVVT

[11] = Late-stage probe development counterscreen for inhibitors of the Hepatitis C Virus non-structural protein 3 helicase (NS3): luminescence-based cell-based dose response assay to determine whether compounds that inhibit replication of HCV RNA replicon are cytotoxic. [Related pubchem assays (depositor defined):AID1800, AID1830, AID1845, AID1943, AID1945, AID2172, AID2173, AID2474, AID2476]; format: functional
CAAX prenyl protease 2 [12] = biological target: T4, CAAX prenyl protease 2 (Saccharomyces cerevisiae S288c, UniProt Q03530); format: biochemical
T4 sequence (Q03530 whole entry): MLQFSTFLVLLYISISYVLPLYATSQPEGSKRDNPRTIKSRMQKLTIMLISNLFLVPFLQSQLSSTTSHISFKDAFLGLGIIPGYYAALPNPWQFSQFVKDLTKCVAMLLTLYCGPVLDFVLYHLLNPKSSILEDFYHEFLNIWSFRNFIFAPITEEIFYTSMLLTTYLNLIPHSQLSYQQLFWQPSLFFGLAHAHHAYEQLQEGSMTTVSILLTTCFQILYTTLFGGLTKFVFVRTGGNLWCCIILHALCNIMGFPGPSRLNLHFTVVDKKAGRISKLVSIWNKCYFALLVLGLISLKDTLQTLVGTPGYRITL

CAAX prenyl protease 2 [13] = biological target: T4, CAAX prenyl protease 2; test: inhibition of Rce1p peptide cleavage – biochemical, plate reader, dry powder retest, dose response (AID 588851)
CAAX prenyl protease 2 [14] = biological target: CAAX prenyl protease 2 (Homo sapiens, UniProt Q9Y256); test: inhibition of Ras-converting CAAX protease Rce1 – biochemical, yeast membranes, quenched-peptide fluorescence, cherry-pick, dose response (AID 588849)
CAAX prenyl protease 2 (Homo sapiens, UniProt Q9Y256), sequence (Q9Y256 whole entry): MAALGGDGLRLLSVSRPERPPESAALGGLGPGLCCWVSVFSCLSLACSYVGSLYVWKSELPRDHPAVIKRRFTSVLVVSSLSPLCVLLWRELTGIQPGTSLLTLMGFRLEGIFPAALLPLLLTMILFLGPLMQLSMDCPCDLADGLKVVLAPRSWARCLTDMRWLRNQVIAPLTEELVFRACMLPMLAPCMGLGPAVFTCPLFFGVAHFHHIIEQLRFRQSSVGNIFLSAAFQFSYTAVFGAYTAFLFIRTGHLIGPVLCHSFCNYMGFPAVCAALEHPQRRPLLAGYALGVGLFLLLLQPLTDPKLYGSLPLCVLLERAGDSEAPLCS

[15] = biological target: Glyceraldehyde-3-phosphate dehydrogenase (Homo sapiens, UniProt P04406)
Glyceraldehyde-3-phosphate dehydrogenase, sequence (P04406 whole entry): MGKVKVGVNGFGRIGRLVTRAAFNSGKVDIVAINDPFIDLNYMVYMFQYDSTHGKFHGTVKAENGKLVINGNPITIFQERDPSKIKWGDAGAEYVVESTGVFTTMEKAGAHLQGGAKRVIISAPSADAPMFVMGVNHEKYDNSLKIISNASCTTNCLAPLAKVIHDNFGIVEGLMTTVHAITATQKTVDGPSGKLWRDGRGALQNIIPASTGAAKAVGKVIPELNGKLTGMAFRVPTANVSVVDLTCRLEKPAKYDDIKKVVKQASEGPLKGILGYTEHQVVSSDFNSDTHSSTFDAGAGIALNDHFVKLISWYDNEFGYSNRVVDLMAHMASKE

[16] = biological target: T5, Tyrosine-protein phosphatase non-receptor type 7 (Homo sapiens, UniProt P35236); format: functional
T5 sequence (P35236 whole entry): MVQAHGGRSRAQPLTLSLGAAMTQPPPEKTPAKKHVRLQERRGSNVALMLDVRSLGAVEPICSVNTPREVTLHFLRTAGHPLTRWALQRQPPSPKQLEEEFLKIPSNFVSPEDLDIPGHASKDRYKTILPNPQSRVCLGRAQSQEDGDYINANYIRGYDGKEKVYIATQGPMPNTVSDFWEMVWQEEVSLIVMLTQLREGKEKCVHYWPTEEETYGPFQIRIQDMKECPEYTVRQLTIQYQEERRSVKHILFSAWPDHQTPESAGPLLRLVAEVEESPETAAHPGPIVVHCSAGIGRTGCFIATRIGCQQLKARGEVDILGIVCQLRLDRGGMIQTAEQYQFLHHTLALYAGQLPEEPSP

[17] = biological target: T6, Dual specificity protein phosphatase 6 (Rattus norvegicus, UniProt Q64346); format: functional
T6 sequence (Q64346 whole entry): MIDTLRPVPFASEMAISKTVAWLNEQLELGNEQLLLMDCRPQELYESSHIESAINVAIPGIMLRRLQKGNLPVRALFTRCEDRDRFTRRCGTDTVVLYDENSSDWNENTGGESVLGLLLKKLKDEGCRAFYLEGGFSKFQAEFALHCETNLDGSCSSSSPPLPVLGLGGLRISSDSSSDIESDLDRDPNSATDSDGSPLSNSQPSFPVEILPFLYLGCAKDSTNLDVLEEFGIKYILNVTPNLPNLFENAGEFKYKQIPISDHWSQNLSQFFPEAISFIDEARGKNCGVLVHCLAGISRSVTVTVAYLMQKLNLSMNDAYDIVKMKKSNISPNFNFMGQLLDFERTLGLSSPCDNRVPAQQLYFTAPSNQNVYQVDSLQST

[18] = biological target: T6, Dual specificity protein phosphatase 6
[19] = biological target: Nuclear receptor subfamily 0 group B member 1 (Homo sapiens, UniProt P51843); test: Luminescence-based cell-based high throughput dose response assay for inhibitors of the orphan nuclear receptor subfamily 0, group B, member 1 (DAX1; NR0B1). [Related pubchem assays (depositor defined):AID504766, AID504790]; format: functional
Nuclear receptor subfamily 0 group B member 1, sequence (P51843 whole entry): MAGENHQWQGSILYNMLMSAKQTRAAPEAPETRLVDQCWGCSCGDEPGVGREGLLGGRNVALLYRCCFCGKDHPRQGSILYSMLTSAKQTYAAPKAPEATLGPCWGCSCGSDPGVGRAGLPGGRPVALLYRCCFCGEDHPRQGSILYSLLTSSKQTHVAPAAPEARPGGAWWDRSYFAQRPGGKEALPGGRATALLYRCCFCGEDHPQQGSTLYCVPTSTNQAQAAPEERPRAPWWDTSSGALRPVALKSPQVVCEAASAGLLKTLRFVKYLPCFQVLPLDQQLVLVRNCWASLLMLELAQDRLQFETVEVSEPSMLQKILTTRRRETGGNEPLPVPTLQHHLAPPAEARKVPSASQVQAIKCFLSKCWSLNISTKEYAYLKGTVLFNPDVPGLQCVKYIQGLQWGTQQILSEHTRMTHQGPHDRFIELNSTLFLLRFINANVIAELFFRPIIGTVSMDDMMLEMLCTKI

HEK293 = test: cells; format: functional, cell-based; conditions: Homo sapiens
[20] = biological target: Voltage-gated inwardly rectifying potassium channel KCNH2 (Homo sapiens, UniProt Q12809); conditions: Potency;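 also: confirmatory quantitative high-throughput screen measuring inhibition of hERG channel activity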
Voltage-gated inwardly rectifying potassium channel KCNH2, sequence (Q12809 whole entry): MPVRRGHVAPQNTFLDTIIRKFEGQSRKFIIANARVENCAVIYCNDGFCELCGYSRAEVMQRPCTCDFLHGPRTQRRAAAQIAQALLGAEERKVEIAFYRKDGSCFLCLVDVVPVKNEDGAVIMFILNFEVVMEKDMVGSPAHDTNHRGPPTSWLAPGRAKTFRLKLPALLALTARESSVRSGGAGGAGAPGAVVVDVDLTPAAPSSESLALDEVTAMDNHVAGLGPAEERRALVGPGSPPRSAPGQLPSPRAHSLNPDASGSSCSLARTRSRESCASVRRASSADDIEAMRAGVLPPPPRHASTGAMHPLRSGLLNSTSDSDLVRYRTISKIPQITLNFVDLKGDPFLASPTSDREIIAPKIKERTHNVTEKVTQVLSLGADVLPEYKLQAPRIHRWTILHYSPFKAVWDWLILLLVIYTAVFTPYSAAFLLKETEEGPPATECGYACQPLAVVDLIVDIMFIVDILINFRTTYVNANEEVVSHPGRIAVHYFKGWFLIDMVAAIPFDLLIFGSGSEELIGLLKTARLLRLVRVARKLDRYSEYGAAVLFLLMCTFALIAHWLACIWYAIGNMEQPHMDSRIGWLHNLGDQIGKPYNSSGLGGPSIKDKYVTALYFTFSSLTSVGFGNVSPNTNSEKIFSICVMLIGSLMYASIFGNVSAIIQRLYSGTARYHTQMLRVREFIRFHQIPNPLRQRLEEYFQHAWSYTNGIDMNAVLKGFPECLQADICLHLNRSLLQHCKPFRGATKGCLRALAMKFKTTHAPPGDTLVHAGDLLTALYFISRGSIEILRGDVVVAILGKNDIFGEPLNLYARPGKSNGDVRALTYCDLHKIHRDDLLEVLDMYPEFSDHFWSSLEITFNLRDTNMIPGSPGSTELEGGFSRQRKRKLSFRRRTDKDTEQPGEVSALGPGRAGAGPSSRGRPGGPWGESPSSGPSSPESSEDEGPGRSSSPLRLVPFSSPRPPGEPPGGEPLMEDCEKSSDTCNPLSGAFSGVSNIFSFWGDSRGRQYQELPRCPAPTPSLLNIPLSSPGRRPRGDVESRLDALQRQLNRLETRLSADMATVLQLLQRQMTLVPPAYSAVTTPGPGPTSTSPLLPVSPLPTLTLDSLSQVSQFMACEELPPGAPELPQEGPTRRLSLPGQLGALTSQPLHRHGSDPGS

NIH3T3 = test: mammalian cell viability counter-check – Alamar Blue, fluconazole, dry powder, cytotoxicity control for antifungal drug resistance project, dose response (AID 488809); format: functional, cell-based; conditions: Mus musculus
Candida albicans [21] = test: C. albicans growth inhibition with fluconazole – CaCi-2 strain, Alamar Blue, dry powder, set 4, dose response (AID 488943); format: functional, organism-based
Candida albicans [22] = test: fluconazole-resistant Candida strain growth inhibitors – CaCi-8 strain, dry powder, set 4, dose response (AID 488950); format: functional, organism-based
Candida albicans [23] = test: antifungal activity against resistant Candida strain – CaCi-8, fluconazole, Alamar Blue, dry powder, dose response (AID 488807); format: functional, organism-based

With `COc1ccc(-c2nc(-c3ccc(O)cc3O)cs2)cc1OC` the CC50 [1] was 74.7 µM (active), the IC50 [2] was 4.5 µM (active) and the IC50 [3] was 14.1 µM (inactive). For the same compound, the IC50 [4] was 55.1 µM (active).
With `NS(=O)(=O)c1ccc(N/N=C/c2ccc(O)c(O)c2O)c([N+](=O)[O-])c1` the IC50 (Beta-arrestin-1) was 11 µM (active), the AC50 (Caspase-6) was 0.351 µM (active) and the IC50 [5] was > 66 µM (inactive). The IC50 [6] was > 50 µM (not active), the IC50 [7] was > 66 µM (inactive) and the IC50 [8] was > 80 µM (inactive). For the same compound, the IC50 (Genome polyprotein) was 4.59 µM (active) and the IC50 [9] was > 50 µM (not active).
With `C[C@H](NC(=O)c1nc[nH]c1C(=O)N[C@@H](C)C(=O)OCc1ccccc1)C(=O)OCc1ccccc1` the IC50 [10] was > 80 µM (inactive) and the IC50 (Jurkat) was 73.6 µM (inactive).
With `COc1cc(C2C(C(=O)c3ccc(C)o3)=C(O)C(=O)N2c2cc(C)on2)ccc1OCc1ccccc1` (stereo not given) the IC50 (NS3) was 2.68 µM (active) and the CC50 [11] was > 100 µM (inactive).
For `CCOc1cccc(-c2c(C(=O)N/N=C/c3cccs3)nnn2-c2nonc2N)c1`, the AC50 (CAAX prenyl protease 2 [12]) was 1.53 µM (active), the AC50 (CAAX prenyl protease 2 [13]) was 37.1 µM (active) and the AC50 (CAAX prenyl protease 2 [14]) was 15.3 µM (active).
In the case of `CCOC(=O)C1Nc2c(OC)cccc2C2OCCCC12` (stereo not given), the IC50 [15] is reported as > 100 µM (not active), the IC50 [16] is reported as > 100 µM (not active) and the IC50 [17] is reported as > 100 µM (inactive). For the same compound, the IC50 [18] was > 100 µM (inactive).
In the case of `COc1cc(C(=O)O)cc(OC)c1OC` [3,4,5-TRIMETHOXYBENZOIC ACID], the IC50 [19] is reported as > 67.5 µM (inactive) and the IC50 (HEK293) is reported as > 67.5 µM (inactive).
In the case of `NCCNC(=O)c1ncsc1-c1cccc(F)c1`, the AC50 [20] is reported as 35.5 µM (inconclusive).
With `O=C(c1cccs1)N1CCN(c2ccnc3cc(Cl)ccc23)CC1` the AC50 (NIH3T3) was 17.9 µM (active), the AC50 (Candida albicans [21]) was 1.71 µM (active) and the AC50 (Candida albicans [22]) was 2.96 µM (active). The AC50 (Candida albicans [23]) was 5.31 µM (active).
